One test has as its target T1, hSTING-WT (R232) (Homo sapiens, UniProt Q86WV6, H232R).
T1 construct: host or cells: THP1-Dual cells (human monocytes) with knocked-in hSTING R232
The test is described as follows: STING activation, THP1-Dual IRF3 reporter assay, hSTING-R232 cells. Format: cell-based. Conditions: IRF3 luciferase reporter, 24 hours, read-out: STING activity using hSTING-R232 cells EC50. On the procedure:
To assess potency of STING agonist compounds described herein, THP1-Dual™ Cells (NF—KB-SEAP and IRF-Lucia luciferase reporter monocytes, InvivoGen) were used. The reporter cells were knocked-in either of hSTING-WT (R232, #thpd-r232), HAQ variant (#thpd-nfis), or H232 variant (#thpd-h232). All cells were cultured at 37° C. in a humidified incubator at 5% CO2 and maintained in RPMI 1640 medium (Gibco, #22400097) supplemented with 10% heat-inactivated FBS and 1×Pen-Strep (Gibco, #15140122). To measure STING agonist-mediated IRF3 activity, the cells (9.0×10^4 cells per well) were seeded in a flat-bottomed 96-well plate. The next day, the cells were treated with compounds in a serial dilution for 24 hours. Subsequently, 20 μL of the cell culture supernatant and 50 μL of the QUANTI-Luc™ reagent (InvivoGen, #rep-qlc) were mixed in a 96-well white plate and then, luciferase activity was measured using an EnVision Xcite multilabel reader. The data were analyzed using Prism8 software (4-parameter).
The potency of STING agonist compounds was evaluated by the activation of Type I Interferon pathway using THP-1 IRF3 reporter assay.

For a further test, the target named is T2, human STING (Homo sapiens, UniProt Q86WV6, H232R).
T2 construct: purchased Cisbio 64BDSTGPEG
The test is described as follows: Direct STING binding, HUMAN STING WT BINDING KIT (Cisbio). Conditions: direct binding to human STING WT protein in vitro; read-out: Binding potency EC50. The source says:
Additionally, for analysis of direct binding potency of STING agonist compounds described herein to human STING, HUMAN STING WT BINDING KIT (Cisbio, #64BDSTGPEG) was used according to the manufacture's instruction.

Broadly, the EC50 is the concentration needed to bring the measured effect to its halfway point.

T1 sequence (Q86WV6 whole entry H232R): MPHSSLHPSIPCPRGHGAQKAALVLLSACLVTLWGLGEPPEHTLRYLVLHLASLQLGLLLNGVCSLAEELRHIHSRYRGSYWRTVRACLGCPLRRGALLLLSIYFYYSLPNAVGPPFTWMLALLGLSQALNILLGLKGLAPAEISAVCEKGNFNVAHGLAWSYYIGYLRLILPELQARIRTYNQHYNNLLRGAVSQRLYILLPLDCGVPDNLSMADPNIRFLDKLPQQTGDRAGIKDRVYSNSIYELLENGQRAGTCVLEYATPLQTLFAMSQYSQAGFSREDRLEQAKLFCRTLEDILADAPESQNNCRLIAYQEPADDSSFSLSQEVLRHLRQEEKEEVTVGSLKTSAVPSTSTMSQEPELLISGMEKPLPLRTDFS
T2 sequence (Q86WV6 whole entry H232R): as above

On to `CCn1nc(C)cc1C(=O)Nc1nc2cc(C(N)=O)cc(OC)c2n1C/C=C/Cn1c(NC(=O)c2cc(C)nn2CC)nc2cc(C(N)=O)cc(OC/C=C/Cn3cc(NCCC(=O)OC)cn3)c21` [Compound 174], for which, at hSTING-WT (R232), the EC50 was 44.4 nM. Same read-out and setting: for `CCn1nc(C)cc1C(=O)Nc1nc2cc(C(N)=O)cc(OC)c2n1C/C=C/Cn1c(NC(=O)c2cc(C)nn2CC)nc2cc(C(N)=O)cc(OCCc3ccc(NC(=O)OCc4ccc(O[C@@H]5O[C@H](C(=O)O)[C@@H](O)[C@H](O)[C@H]5O)c(C(=O)NCCOC)c4)cc3)c21` [Compound 239] the value was 4.46 nM; for `CCn1nc(C)cc1C(=O)Nc1nc2cc(C(N)=O)cc(OC)c2n1C/C=C/Cn1c(NC(=O)c2cc(C)nn2CC)nc2cc(C(N)=O)cc(OCCc3ccc(NC(=O)OCc4ccc(O[C@@H]5O[C@H](C(=O)O)[C@@H](O)[C@H](O)[C@H]5O)c(C(=O)NCCOCCOCCN(C)C)c4)cc3)c21` [Compound 262], 6.78 nM; for `CCn1nc(C)cc1C(=O)Nc1nc2cc(C(N)=O)cc(OC)c2n1C/C=C/Cn1c(NC(=O)c2cc(C)nn2CC)nc2cc(C(N)=O)cc(OC/C=C/Cn3cc(NC(=O)OCc4ccc(O[C@@H]5O[C@H](C(=O)O)[C@@H](O)[C@H](O)[C@H]5O)c(C(=O)NCCOC)c4)cn3)c21` [Compound 272], 18.8 nM.

`CCn1nc(C)cc1C(=O)Nc1nc2cc(C(N)=O)cc(OC)c2n1C/C=C/Cn1c(NC(=O)c2cc(C)nn2CC)nc2cc(C(N)=O)cc(OC/C=C/Cn3cc(NC(=O)OCc4ccc(O[C@@H]5O[C@H](C(=O)O)[C@@H](O)[C@H](O)[C@H]5O)c(C(=O)NCCOCCOCCOCCOCCOCC(=O)O)c4)cn3)c21` [Compound 285]: the EC50 at hSTING-WT (R232) stood at 33.5 nM; on human STING it was 0.3 nM. The matching figures for `CCn1nc(C)cc1C(=O)Nc1nc2cc(C(N)=O)cc(OC)c2n1C/C=C/Cn1c(NC(=O)c2cc(C)nn2CC)nc2cc(C(N)=O)cc(OC/C=C/Cn3cc(NC(=O)OCc4ccc(O[C@@H]5O[C@H](C(=O)O)[C@@H](O)[C@H](O)[C@H]5O)c(C(=O)NCCOCCOCCN5CCOCC5)c4)cn3)c21` [Compound 291]: 8.86 nM and 0.26 nM.

On to `CCn1nc(C)cc1C(=O)Nc1nc2cc(C(N)=O)cc(OC)c2n1C/C=C/Cn1c(NC(=O)c2cc(C)nn2CC)nc2cc(C(N)=O)cc(OC/C=C/Cn3cc(NC(=O)OCc4ccc(O[C@@H]5O[C@H](C(=O)O)[C@@H](O)[C@H](O)[C@H]5O)c(C(=O)O)c4)cn3)c21` [Compound 299], for which the EC50 was determined as 7.2 nM at hSTING-WT (R232) and 0.27 nM on human STING. On to `CCn1nc(C)cc1C(=O)Nc1nc2cc(C(N)=O)cc(OC)c2n1C/C=C/Cn1c(NC(=O)c2cc(C)nn2CC)nc2cc(C(N)=O)cc(OC/C=C/Cn3cc(NC(=O)OCc4ccc(O[C@@H]5O[C@H](CO)[C@H](O)[C@H](O)[C@H]5O)c(C(=O)NCCOCCOCCO)c4)cn3)c21` [Compound 307], for which the EC50 at hSTING-WT (R232) came to 5.36 nM; at human STING, 0.18 nM. The matching figures for `CCn1nc(C)cc1C(=O)Nc1nc2cc(C(N)=O)cc(OC)c2n1C/C=C/Cn1c(NC(=O)c2cc(C)nn2CC)nc2cc(C(N)=O)cc(OC/C=C/Cn3cc(NC(=O)OCc4ccc(O[C@@H]5O[C@H](CO)[C@H](O)[C@H](O)[C@H]5O)c(C(=O)NCCOC)c4)cn3)c21` [Compound 320]: 3.65 nM and 0.04 nM.

`CCn1nc(C)cc1C(=O)Nc1nc2cc(C(N)=O)cc(OC)c2n1C/C=C/Cn1c(NC(=O)c2cc(C)nn2CC)nc2cc(C(N)=O)cc(OC/C=C/Cn3cc(NC(=O)OCc4ccc(O[C@@H]5O[C@H](C(=O)O)[C@@H](O)[C@H](O)[C@H]5O)c(C(=O)NCCC(=O)NC(CC(=O)O)CC(=O)O)c4)cn3)c21` [Compound 328]: the EC50 on hSTING-WT (R232) was determined as 80.7 nM; at human STING, 0.04 nM. Consider `CCn1nc(C)cc1C(=O)Nc1nc2cc(C(N)=O)cc(OC)c2n1C/C=C/Cn1c(NC(=O)c2cc(C)nn2CC)nc2cc(C(N)=O)cc(OC/C=C/CN(CCCNC(=O)OCc3ccc(O[C@@H]4O[C@H](C(=O)O)[C@@H](O)[C@H](O)[C@H]4O)c(C(=O)NCCOCCOCCN4CCOCC4)c3)C(=N)N)c21` [Compound 332], for which, on hSTING-WT (R232), the EC50 stood at 574 nM. `CCn1nc(C)cc1C(=O)Nc1nc2cc(C(N)=O)cc(OC)c2n1C/C=C/Cn1c(NC(=O)c2cc(C)nn2CC)nc2cc(C(N)=O)cc(OC/C=C/Cn3cc(NC(=O)OCc4ccc(O[C@@H]5O[C@H](CO)[C@H](O)[C@H](O)[C@H]5O)c(C(=O)NCCOCCOCCN(C)C)c4)cn3)c21` [Compound 337]: the EC50 was 16.2 nM at hSTING-WT (R232) and 0.19 nM on human STING. In the case of `C#CCNC(=O)c1cc(COC(=O)Nc2cnn(C/C=C/COc3cc(C(N)=O)cc4nc(NC(=O)c5cc(C)nn5CC)n(C/C=C/Cn5c(NC(=O)c6cc(C)nn6CC)nc6cc(C(N)=O)cc(OC)c65)c34)c2)ccc1O[C@@H]1O[C@H](C(=O)OC)[C@@H](OC(C)=O)[C@H](OC(C)=O)[C@H]1OC(C)=O` [Compound 347], the EC50 at hSTING-WT (R232) came out at 10.5 nM. Consider `CCn1nc(C)cc1C(=O)Nc1nc2cc(C(N)=O)cc(OC)c2n1C/C=C/Cn1c(NC(=O)c2cc(C)nn2CC)nc2cc(C(N)=O)cc(OC/C=C/Cn3cc(NC(=O)OCc4ccc(O[C@@H]5O[C@H](C(=O)O)[C@@H](O)[C@H](O)[C@H]5O)c(C(=O)NCCCn5cc(CCOP(=O)(O)O)nn5)c4)cn3)c21` [Compound 357], for which the EC50 was 50.4 nM on hSTING-WT (R232) and 0.14 nM at human STING.

Consider `CCn1nc(C)cc1C(=O)Nc1nc2cc(C(N)=O)cc(OC)c2n1C/C=C/Cn1c(NC(=O)c2cc(C)nn2CC)nc2cc(C(N)=O)cc(OC/C=C/Cn3cc(NC(=O)OCc4ccc(O[C@@H]5O[C@H](C(=O)O)[C@@H](O)[C@H](O)[C@H]5O)c(C(=O)NCCOCCOCCN=[N+]=[N-])c4)cn3)c21` [Compound 367], for which the EC50 on hSTING-WT (R232) came out at 7.67 nM. Still for that read-out and setting: the result for `CCn1nc(C)cc1C(=O)Nc1nc2cc(C(N)=O)cc(OC)c2n1C/C=C/Cn1c(NC(=O)c2cc(C)nn2CC)nc2cc(C(N)=O)cc(OC/C=C/Cn3cc(NC(=O)OCc4ccc(O[C@@H]5O[C@H](C(=O)O)[C@@H](O)[C@H](O)[C@H]5O)c(C(=O)NCCOCCOCCN)c4)cn3)c21` [Compound 372] reads 54.6 nM.

In the case of `CCn1nc(C)cc1C(=O)Nc1nc2cc(C(N)=O)cc(OC/C=C/Cn3cc(NC(=O)OCc4ccc(OC5O[C@H](C(=O)O)[C@@H](O)[C@H](O)[C@H]5O)c(C(=O)NCCOCCOCCN(C)C)c4)cn3)c2n1C/C=C/Cn1c(NC(=O)c2cc(C)nn2CC)nc2cc(C(N)=O)cc(OCCCS(C)(=O)=NC(=O)OCc3ccc(O[C@@H]4O[C@H](C(=O)O)[C@@H](O)[C@H](O)[C@H]4O)c(C(=O)NCCOCCOCCN(C)C)c3)c21` (stereo partly drawn) [Compound 376], the EC50 on hSTING-WT (R232) worked out at 287 nM.

As to `CCn1nc(C)cc1C(=O)Nc1nc2cc(C(N)=O)cc(OC)c2n1C/C=C/Cn1c(NC(=O)c2cc(C)nn2CC)nc2cc(C(N)=O)cc(OC/C=C/CN3CCN(C(=O)OCc4ccc(O[C@@H]5O[C@H](C(=O)O)[C@@H](O)[C@H](O)[C@H]5O)c(C(=O)NCCOC)c4)CC3=O)c21` [Compound 417], the EC50 on hSTING-WT (R232) was found to be 24.6 nM. With `CCn1nc(C)cc1C(=O)Nc1nc2cc(C(N)=O)cc(OC)c2n1C/C=C/Cn1c(NC(=O)c2cc(C)nn2CC)nc2cc(C(N)=O)cc(OC/C=C/CN3CCCN3C(=O)OCc3ccc(O[C@@H]4O[C@H](C(=O)O)[C@@H](O)[C@H](O)[C@H]4O)c(C(=O)NCCOC)c3)c21` [Compound 419], at hSTING-WT (R232), the EC50 was determined as 38.1 nM.

The record behind these values is patent publication US20260167659A1, “STING AGONISTS” (LIGACHEM BIOSCIENCES INC., priority 2022, published 2026).
